According to patent publication US20100004234A1, “SPECIFIC KINASE INHIBITORS” (Kosan Biosciences Incorporated, priority 2004, published 2010):
Where two headings read alike, the source gives them in different places.

Assays:
ERK2 [1] = target: ERK2 (UniProt P28482); assay type: biochemical; parameters: Ki; other: ERK2; 1 mM ATP; kinact; T1/2; kinact/Ki; "the target Cys 172 residue; conditions: ERK2
Protocol: (§1) In either case, the time dependent inactivation can be dampened by the presence of a competing substrate, in this case ATP.
(§2) For covalent inhibitors, plots of log (activity) versus time provide apparent first-order rate constants (kobsd) of enzyme activity loss. If these assays are performed at varying concentrations of inhibitor, a series of first-order plots is obtained and kobsd obtained at each inhibitor concentration. […] Such molecules may be competitive inhibitors but should not show time-dependent inactivation.
(§3) Inhibition progress curve analysis was performed using continuous, colorimetric, or fluorimetric assays. All experiments were done at 1 mM ATP, with the exception of KDR (at 5 mM ATP).
(§4) MEK1 assays were performed using pre-incubation experiments with radioactive [^32P]ATP and filter binding of product. All other kinases were analyzed using progress curve analysis from a continuous spectrophotometric assay.

KDR (VEGFR2) = KDR (VEGFR2) (Homo sapiens, UniProt P35968); assay: Time-dependent kinase inhibition kinetics (progress curve); assay type: biochemical
KDR (VEGFR2), sequence (P35968 20-1356): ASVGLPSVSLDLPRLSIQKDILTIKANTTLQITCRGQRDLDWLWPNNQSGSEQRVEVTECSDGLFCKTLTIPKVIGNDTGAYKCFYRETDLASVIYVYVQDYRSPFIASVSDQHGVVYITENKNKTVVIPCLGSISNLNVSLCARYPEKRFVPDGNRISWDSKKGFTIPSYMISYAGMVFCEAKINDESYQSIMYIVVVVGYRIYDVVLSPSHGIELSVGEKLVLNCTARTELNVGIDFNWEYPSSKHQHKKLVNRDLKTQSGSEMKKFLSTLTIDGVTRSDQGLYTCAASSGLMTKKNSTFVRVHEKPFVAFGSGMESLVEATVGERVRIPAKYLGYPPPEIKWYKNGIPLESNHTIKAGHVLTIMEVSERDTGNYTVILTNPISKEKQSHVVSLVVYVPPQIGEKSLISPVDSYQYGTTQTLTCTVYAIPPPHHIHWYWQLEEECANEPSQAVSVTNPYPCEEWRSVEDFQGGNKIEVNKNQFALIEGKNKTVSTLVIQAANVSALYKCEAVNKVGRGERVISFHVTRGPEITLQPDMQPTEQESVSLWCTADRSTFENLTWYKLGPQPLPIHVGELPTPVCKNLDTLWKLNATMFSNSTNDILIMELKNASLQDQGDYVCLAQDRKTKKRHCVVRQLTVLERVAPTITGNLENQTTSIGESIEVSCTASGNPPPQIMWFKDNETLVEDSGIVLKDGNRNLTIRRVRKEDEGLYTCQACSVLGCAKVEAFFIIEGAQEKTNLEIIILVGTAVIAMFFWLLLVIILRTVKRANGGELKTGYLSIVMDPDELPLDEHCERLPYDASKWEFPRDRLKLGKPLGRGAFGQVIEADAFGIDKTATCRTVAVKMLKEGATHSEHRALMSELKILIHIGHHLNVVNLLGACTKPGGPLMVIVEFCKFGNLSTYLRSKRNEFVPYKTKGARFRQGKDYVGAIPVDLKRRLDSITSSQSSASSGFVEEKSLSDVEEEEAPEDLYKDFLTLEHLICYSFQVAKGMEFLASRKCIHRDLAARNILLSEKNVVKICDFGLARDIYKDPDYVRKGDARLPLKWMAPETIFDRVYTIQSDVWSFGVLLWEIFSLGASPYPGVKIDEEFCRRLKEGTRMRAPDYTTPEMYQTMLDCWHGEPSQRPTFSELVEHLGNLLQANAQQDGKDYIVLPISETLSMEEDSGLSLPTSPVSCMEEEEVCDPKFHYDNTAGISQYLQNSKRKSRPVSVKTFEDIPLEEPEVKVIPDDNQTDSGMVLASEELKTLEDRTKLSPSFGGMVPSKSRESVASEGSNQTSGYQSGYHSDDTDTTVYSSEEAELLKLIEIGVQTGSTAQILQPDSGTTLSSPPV
Protocol: Typically, one measures the increase in inhibition of protein kinase activity in the presence of inhibitor over time. In one method, aliquots of a “pre-incubation” reaction mixture containing enzyme and inhibitor are assayed for activity (initial velocities) over time; increased inhibition or decreased initial velocities will be observed over time as the Michael adduct forms (Walsh, C, Enzyme Reaction Mechanisms, W.H. Freeman & Co., 1979, pp 86-94). In a second method, the time dependent loss of activity is measured as “progress curves” that measure and analyze product formed (e.g. ADP) versus time (Morrison & Walsh, Adv. Enzymol Relat Areas Mol. Biol. 1988, 61, 201-301). In either case, the time dependent inactivation can be dampened by the presence of a competing substrate, in this case ATP.
For covalent inhibitors, plots of log (activity) versus time provide apparent first-order rate constants (kobsd) of enzyme activity loss. If these assays are performed at varying concentrations of inhibitor, a series of first-order plots is obtained and kobsd obtained at each inhibitor concentration. To measure time-dependent inhibition using the “progress-curve method” (see references cited above and Kuzmic et al., Methods Enzymol 2004; 383: 366-81), ERK (or other kinase) is treated with varying amounts of the lactone inhibitor, and the formation of ADP is measured continuously by a coupled assay. […] Such molecules may be competitive inhibitors but should not show time-dependent inactivation.
Those of skill in the art will recognize that within the set of compounds useful in the methods of the invention, significant variability in specificity can be achieved, allowing one to identify optimal compounds for different applications. Inhibition progress curve analysis was performed using continuous, colorimetric, or fluorimetric assays. All experiments were done at 1 mM ATP, with the exception of KDR (at 5 mM ATP).
as §4

[2] = system: ERK1/2 activation in human T cells; conditions: tested at 0.3 to 3 μM; cited from earlier work
ERK2 [3] = target: ERK2 (UniProt P28482); assay type: biochemical; parameters: "the target Cys 172 residue; conditions: Table 7
Protocol: as §1, §2, §3, §4

[4] = system: SKOV3 (ovarian cancer cell line, wild-type B-Raf); assay: Cell proliferation assay; assay type: cell-based; conditions: Homo sapiens, SK-OV-3, read-out: Cell Line IC50 SKOV3
Protocol: (§5) In one illustrative method, cells are treated with various concentrations of the inhibitor in 96 well plates, incubated at 37° C./5% CO2 for three days, and analyzed using the Cell Titer Glo kit (Promega).
COLO829 is a human melanoma cell line. HT29 is a human colon cancer cell line. Both cell lines have a V600E B-Raf mutation. SKOV3 is an ovarian cancer cell line having wild-type B-Raf. EKR2 (extra-cellular signal regulated kinase 2) is a kinase in the Ras/B-Raf MAP kinase cascade pathway.

[5] = system: DU4475 (Human breast, B-Raf V599E); assay: Cell proliferation assay (Cell Titer Glo); assay type: cell-based; conditions: Homo sapiens, DU-4475, read-out: Kinase Inhibitor IC50
Protocol: as §5

[6] = system: P815 (Mouse mastocytoma, KIT D814Y); assay: Cell proliferation assay (Cell Titer Glo); assay type: cell-based; conditions: Mus musculus
Protocol: as §5

[7] = system: ASZ001 (Basal cell carcinoma); assay: Cell proliferation assay (Cell Titer Glo); assay type: cell-based
Protocol: as §5

[8] = system: A375 (Human melanoma, B-Raf V599E); assay: Cell proliferation assay (Cell Titer Glo); assay type: cell-based; conditions: Homo sapiens, A-375, read-out: Kinase Inhibitor IC50
Protocol: as §5

[9] = system: EOL-1 (Human leukemia FLP1L1-PDGFRA); assay: Cell proliferation assay (Cell Titer Glo); assay type: cell-based; conditions: Homo sapiens, EOL1, read-out: Kinase Inhibitor IC50
Protocol: as §5

[10] = system: MV4-11 (Human leukemia Flt3-ITD); assay: Cell proliferation assay (Cell Titer Glo); assay type: cell-based; conditions: Homo sapiens
Protocol: as §5

[11] = system: WM266-4 (Human melanoma, B-Raf V599D); assay: Cell proliferation assay (Cell Titer Glo); assay type: cell-based; conditions: Homo sapiens, WM 266-4, read-out: Kinase Inhibitor IC50
Protocol: as §5

[12] = system: A549 (NSCLC, B-Raf wild-type); assay: Cell proliferation assay (Cell Titer Glo); assay type: cell-based; conditions: Homo sapiens, A549, read-out: Kinase Inhibitor IC50
Protocol: as §5

Syk(h) = Syk(h) (Homo sapiens, UniProt P43405); assay: Kinase panel, residual activity; assay type: biochemical; conditions: read-out: Percent residual activity
Protocol: (§6) In this panel of 124 kinases, 18 of the 19 kinases identified as having an active site cysteine were inhibited to some extent by hypothemycin at a concentration of 0.2 μM and/or 2 μM.

KDR = KDR (Homo sapiens, UniProt P35968); assay: Kinase panel, residual activity; assay type: biochemical; conditions: read-out: Percent residual activity
KDR, sequence (P35968 20-1356, species assumed): as the sequence (P35968 20-1356) above
Protocol: as §6

PRAK(h) = PRAK(h) (Homo sapiens, UniProt Q8IW41); assay: Kinase panel, residual activity; assay type: biochemical; conditions: read-out: Percent residual activity
PRAK(h), sequence (Q8IW41 whole entry): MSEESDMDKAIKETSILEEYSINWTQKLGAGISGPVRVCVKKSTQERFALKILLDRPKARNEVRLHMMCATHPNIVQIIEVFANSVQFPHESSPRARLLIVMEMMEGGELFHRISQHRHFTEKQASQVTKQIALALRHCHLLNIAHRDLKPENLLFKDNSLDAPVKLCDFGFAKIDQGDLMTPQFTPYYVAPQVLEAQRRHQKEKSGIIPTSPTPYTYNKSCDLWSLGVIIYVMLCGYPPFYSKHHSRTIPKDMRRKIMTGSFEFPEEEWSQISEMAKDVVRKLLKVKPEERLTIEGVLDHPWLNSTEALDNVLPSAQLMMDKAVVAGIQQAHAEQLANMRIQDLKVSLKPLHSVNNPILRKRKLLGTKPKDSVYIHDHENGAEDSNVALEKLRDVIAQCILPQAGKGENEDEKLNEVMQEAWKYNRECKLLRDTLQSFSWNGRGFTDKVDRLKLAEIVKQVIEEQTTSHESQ
Protocol: as §6

With `COc1cc(O)c2c(c1)[C@H]1O[C@@H]1C[C@H](O)[C@H](O)C(=O)/C=C\C[C@H](C)OC2=O` [Hypothemycin, hypothemycin] the kinact/Ki (ERK2 [1]) was 1900 M⁻¹ s⁻¹, the Ki (ERK2 [1]; 1 mM ATP) was 2700 nM and the kinact (ERK2 [1]; 1 mM ATP) was 0.005 s⁻¹. For the same molecule, the Ki (KDR (VEGFR2); KDR) was 10 nM, the kinact/KI (KDR (VEGFR2); KDR) was 500000 M⁻¹ s⁻¹ and the kinact/Ki (KDR (VEGFR2); KDR (VEGFR2)) was 500000 M⁻¹ s⁻¹. For the same molecule, the Ki (KDR (VEGFR2); KDR (VEGFR2), 5 mM ATP) was 14 nM, the kinact (KDR (VEGFR2); KDR (VEGFR2), 5 mM ATP) was 0.007 s⁻¹ and the KDR activity inhibited (KDR (VEGFR2); calculated for 0.1 μM for ~10 minutes) was > 98%. For the same molecule, the “inhibition of the activation of ERK1/2” value [2] was “inhibit”, the “ERK2 Inhibition kinact.” value (ERK2 [3]) was 5 ± 2 × 10^−3 sec^−1 and the Ki (ERK2 [3]; read-out: ERK2 Inhibition Ki) was 1900 ± 1100 nM. It also gave an IC50 [4] of ~4000 nM, an IC50 [5] of 18 nM and a GI50 ([6]; P815) of 310 nM. For the same molecule, the IC50 ([6]; P815, read-out: Kinase Inhibitor IC50) was 310 nM, the IC50 ([7]; ASZ001 (Basal cell carcinoma), read-out: Kinase Inhibitor IC50) was 100 nM and the IC50 ([7]; BCC cell line ASZ001 in culture, read-out: IC50) was ~100 nM. The IC50 [8] was 180 nM, the IC50 [9] was 0.41 nM and the GI50 ([10]; MV4-11) was 6 nM. For the same molecule, the IC50 ([10]; MV4-11, read-out: Kinase Inhibitor IC50) was 5.5 nM, the IC50 [11] was 40 nM and the IC50 [12] was 6000 nM. It also gave a remaining activity at 0.2 µM (Syk(h)) of 105%, a remaining activity at 2 µM (KDR) of 15% and a remaining activity at 0.2 µM (PRAK(h); 0.2 μM) of 20%. It also gave a remaining activity at 2 µM (PRAK(h); 2.0 μM) of 1%.
